Test results reported in patent US20100298141A1, “SUBSTITUTED PYRIDINE N-OXIDE HERBICIDES” (E. I. DU PONT DE NEMOURS AND COMPANY, priority 2007, published 2010).

Assays:
[1] = system: wild oat; test: Test C pre-/postemergence test; format: in vivo, Avena fatua; settings: for Plant response rating, Oat, Wild: 31 g ai/ha, scale 0 to 100 (0 no effect, 100 complete control)
In short: (§1)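 Compounds in a non-phytotoxic solvent with surfactant applied preemergence to seeded pots and, at the same time, postemergence to plants 2–18 cm tall (1- to 4-leaf stage). Paddy tests: pots flooded to 3 cm, compound applied into the water, depth held throughout.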

[2] = system: morningglory; test: Test C pre-/postemergence test; format: in vivo, Ipomoea coccinea; settings: for Plant response rating, Morningglory: 31 g ai/ha, scale 0 to 100 (0 no effect, 100 complete control)
In short: as §1

[3] = system: catchweed bedstraw; test: Test C pre-/postemergence test; format: in vivo, Galium aparine; settings: for Plant response rating, Galium: 31 g ai/ha, scale 0 to 100 (0 no effect, 100 complete control)
In short: as §1

[4] = system: soybean; test: Test C pre-/postemergence test; format: in vivo, Glycine max; settings: for Plant response rating, Soybean: 31 g ai/ha, scale 0 to 100 (0 no effect, 100 complete control)
In short: as §1

[5] = system: green foxtail; test: Test C pre-/postemergence test; format: in vivo, Setaria viridis; settings: for Plant response rating, Foxtail, Green: 31 g ai/ha, scale 0 to 100 (0 no effect, 100 complete control)
In short: as §1

[6] = system: corn; test: Test C pre-/postemergence test; format: in vivo, Zea mays; settings: for Plant response rating, Corn: 31 g ai/ha, scale 0 to 100 (0 no effect, 100 complete control)
In short: as §1

[7] = system: velvetleaf; test: Test C pre-/postemergence test; format: in vivo, Abutilon theophrasti; settings: for Plant response rating, Velvetleaf: 31 g ai/ha, scale 0 to 100 (0 no effect, 100 complete control)
In short: as §1

[8] = system: Italian ryegrass; test: Test C pre-/postemergence test; format: in vivo, Lolium multiflorum; settings: for Plant response rating, Ryegrass, Italian: 31 g ai/ha, scale 0 to 100 (0 no effect, 100 complete control)
In short: as §1

[9] = system: johnsongrass; test: Test C pre-/postemergence test; format: in vivo, Sorghum halepense; settings: for Plant response rating, Johnsongrass: 31 g ai/ha, scale 0 to 100 (0 no effect, 100 complete control)
In short: as §1

[10] = system: woolly cupgrass; test: Test C pre-/postemergence test; format: in vivo, Eriochloa villosa; settings: for Plant response rating, Cupgrass, Woolly: 31 g ai/ha, scale 0 to 100 (0 no effect, 100 complete control)
In short: as §1

[11] = system: blackgrass; test: Test C pre-/postemergence test; format: in vivo, Alopecurus myosuroides; settings: for Plant response rating, Blackgrass: 31 g ai/ha, scale 0 to 100 (0 no effect, 100 complete control)
In short: as §1

[12] = system: downy brome; test: Test C pre-/postemergence test; format: in vivo, Bromus tectorum; settings: for Plant response rating, Bromegrass, Downy: 31 g ai/ha, scale 0 to 100 (0 no effect, 100 complete control)
In short: as §1

[13] = system: duck salad; test: Test C flooded paddy test; format: in vivo, Heteranthera limosa; settings: Flood
In short: (§2)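 Ratings were visual and made relative to untreated controls after 13 to 15 greenhouse days.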

[14] = system: giant foxtail; test: Test C pre-/postemergence test; format: in vivo, Setaria faberii; settings: for Plant response rating, Foxtail, Giant: 31 g ai/ha, scale 0 to 100 (0 no effect, 100 complete control)
In short: as §1

[15] = system: velvetleaf; test: Test A pre-/postemergence greenhouse test; format: in vivo, Abutilon theophrasti; settings: for Velvetleaf plant response rating: 0 to 100 scale; for Plant response rating, Velvetleaf: 0 to 100 scale where 0 is no effect and 100 is complete control
In short: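 Two application timings were run side by side in the greenhouse. Before emergence, compound went onto the soil surface of loam–sand pots as a directed spray; after emergence, plants at 2–10 cm and the one- to two-leaf stage were treated. Visual injury versus controls was rated at approximately day ten.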

[16] = system: cocklebur; test: Test C pre-/postemergence test; format: in vivo, Xanthium strumarium; settings: for Plant response rating, Cocklebur: 31 g ai/ha, scale 0 to 100 (0 no effect, 100 complete control)
In short: as §1

[17] = system: barnyardgrass; test: Test C flooded paddy test; format: in vivo, Echinochloa crus-galli; settings: Flood
In short: as §2

[18] = preemergence, 250 g ai/ha, scale 0 (no effect) to 100 (complete control)
[19] = 62 g ai/ha, Preemergence, scale 0 to 100
[20] = 125 g ai/ha, preemergence, scale 0 (no effect) to 100 (complete control)
[21] = 31 g ai/ha, scale 0 to 100 (0 no effect, 100 complete control)
[22] = 62 g ai/ha, scale 0 to 100, 0 no effect, 100 complete control, 13 to 15 days
[23] = 125 g ai/ha, scale 0 to 100, 0 no effect, 100 complete control, 13 to 15 days
[24] = 250 g ai/ha, scale 0 to 100, 0 no effect, 100 complete control, 13 to 15 days
[25] = Postemergence, 125 g ai/ha, 0 is no effect, 100 is complete control
[26] = Postemergence, 500 g ai/ha, 0 is no effect, 100 is complete control
[27] = Preemergence, 125 g ai/ha, 0 no effect, 100 complete control
[28] = preemergence, 125 g ai/ha, scale 0 (no effect) to 100 (complete control)

## Cc1cc[n+]([O-])c(S(=O)(=O)C(Cl)c2c(C(F)(F)F)nn(C)c2OCC(F)(F)F)c1 (racemic) [Compound 37]
[1]; Preemergence
  Plant response rating, Oat, Wild: 0
[1]; [18]
  Oat, Wild plant response rating: 60
[2]; [19]
  Morningglory plant response rating: 0
[2]; [20]
  Morningglory plant response rating: 0
[2]; Preemergence
  Plant response rating, Morningglory: 0
[2]; [18]
  Morningglory plant response rating: 60
[3]; Preemergence
  Plant response rating, Galium: 80
[3]; [18]
  Galium plant response rating: 80
[4]; [20]
  Soybean plant response rating: 10
[4]; Preemergence
  Plant response rating, Soybean: 0
[4]; [18]
  Soybean plant response rating: 10
[5]; Preemergence
  Plant response rating, Foxtail, Green: 0
[5]; [18]
  Foxtail, Green plant response rating: 100
[6]; [19]
  Corn plant response rating: 5
[6]; [20]
  Corn plant response rating: 50
[6]; Preemergence
  Plant response rating, Corn: 0
[6]; [18]
  Corn plant response rating: 90
[7]; [19]
  Velvetleaf plant response rating: 0
[7]; [20]
  Velvetleaf plant response rating: 10
[7]; Preemergence
  Plant response rating, Velvetleaf: 0
[7]; [18]
  Velvetleaf plant response rating: 70
[8]; Preemergence
  Plant response rating, Ryegrass, Italian: 0
[8]; [18]
  Ryegrass, Italian plant response rating: 100
[9]; [19]
  Johnsongrass plant response rating: 80
[9]; [20]
  Johnsongrass plant response rating: 80
[9]; Preemergence
  Plant response rating, Johnsongrass: 50
[9]; [18]
  Johnsongrass plant response rating: 95
[10]; [19]
  Cupgrass, Woolly plant response rating: 80
[10]; [20]
  Cupgrass, Woolly plant response rating: 98
[10]; Preemergence
  Plant response rating, Cupgrass, Woolly: 40
[10]; [18]
  Cupgrass, Woolly plant response rating: 100
[11]; Preemergence
  Plant response rating, Blackgrass: 95
[11]; [18]
  Blackgrass plant response rating: 100
[12]; Preemergence
  Plant response rating, Bromegrass, Downy: 0
[12]; [18]
  Bromegrass, Downy plant response rating: 60
[13]; [21]
  Plant response rating, Ducksalad: 20
[13]; [22]
  Plant response rating, Ducksalad: 40
[13]; [23]
  Plant response rating, Ducksalad: 85
[13]; [24]
  Plant response rating, Ducksalad: 95
[14]; [19]
  Foxtail, Giant plant response rating: 70
[14]; [20]
  Foxtail, Giant plant response rating: 85
[14]; Preemergence
  Plant response rating, Foxtail, Giant: 20
[14]; [18]
  Foxtail, Giant plant response rating: 100
[15]; [25]
  Velvetleaf plant response rating: 0
[15]; [26]
  Velvetleaf plant response rating: 10
[15]; [27]
  Velvetleaf plant response rating: 40
[15]; Preemergence, 500 g ai/ha
  Plant response rating, Velvetleaf: 80
[16]; [19]
  Cocklebur plant response rating: 0
[16]; [20]
  Cocklebur plant response rating: 0
[16]; Preemergence
  Plant response rating, Cocklebur: 0
[16]; [18]
  Cocklebur plant response rating: 0
[17]; [21]
  Plant response rating, Barnyardgrass: 10
[17]; [22]
  Plant response rating, Barnyardgrass: 10
[17]; [23]
  Plant response rating, Barnyardgrass: 10
[17]; [24]
  Plant response rating, Barnyardgrass: 80

## Cc1cc[n+]([O-])c(S(=O)(=O)Cc2c(C(F)(F)F)nn(C)c2OCC(F)(F)F)c1 [Compound 31]
[1]; [19]
  Oat, Wild plant response rating: 60
[1]; Preemergence
  Plant response rating, Oat, Wild: 5
[2]; [19]
  Morningglory plant response rating: 100
[2]; Preemergence
  Plant response rating, Morningglory: 85
[3]; [19]
  Galium plant response rating: 100
[3]; Preemergence
  Plant response rating, Galium: 100
[3]; Preemergence, 250 g ai/ha
  Plant response rating (0 to 100), Galium: 100
[4]; [19]
  Soybean plant response rating: 15
[4]; Preemergence
  Plant response rating, Soybean: 10
[5]; [19]
  Foxtail, Green plant response rating: 100
[5]; Preemergence
  Plant response rating, Foxtail, Green: 100
[6]; [19]
  Corn plant response rating: 50
[6]; Preemergence
  Plant response rating, Corn: 0
[6]; Preemergence, 250 g ai/ha
  Plant response rating (0 to 100), Corn: 98
[6]; [28]
  Corn plant response rating: 85
[7]; [19]
  Velvetleaf plant response rating: 100
[7]; Preemergence
  Plant response rating, Velvetleaf: 55
[8]; [19]
  Ryegrass, Italian plant response rating: 60
[8]; Preemergence
  Plant response rating, Ryegrass, Italian: 40
[9]; [19]
  Johnsongrass plant response rating: 100
[9]; Preemergence
  Plant response rating, Johnsongrass: 100
[9]; Preemergence, 250 g ai/ha
  Plant response rating (0 to 100), Johnsongrass: 100
[10]; [19]
  Cupgrass, Woolly plant response rating: 100
[10]; Preemergence
  Plant response rating, Cupgrass, Woolly: 95
[10]; Preemergence, 250 g ai/ha
  Plant response rating (0 to 100), Cupgrass, Woolly: 100
[11]; [19]
  Blackgrass plant response rating: 80
[11]; Preemergence
  Plant response rating, Blackgrass: 60
[11]; Preemergence, 250 g ai/ha
  Plant response rating (0 to 100), Blackgrass: 100
[11]; [28]
  Blackgrass plant response rating: 100
[12]; [19]
  Bromegrass, Downy plant response rating: 50
[12]; Preemergence
  Plant response rating, Bromegrass, Downy: 0
[12]; Preemergence, 250 g ai/ha
  Plant response rating (0 to 100), Bromegrass, Downy: 80
[12]; [28]
  Bromegrass, Downy plant response rating: 70
[13]; [21]
  Plant response rating, Ducksalad: 45
[13]; [22]
  Plant response rating, Ducksalad: 45
[13]; [23]
  Plant response rating, Ducksalad: 80
[13]; [24]
  Plant response rating, Ducksalad: 90
[14]; [19]
  Foxtail, Giant plant response rating: 100
[14]; Preemergence
  Plant response rating, Foxtail, Giant: 100
[14]; Preemergence, 250 g ai/ha
  Plant response rating (0 to 100), Foxtail, Giant: 100
[15]; [25]
  Velvetleaf plant response rating: 50
[15]; [26]
  Velvetleaf plant response rating: 60
[15]; [27]
  Velvetleaf plant response rating: 30
[15]; Preemergence, 500 g ai/ha
  Plant response rating, Velvetleaf: 90
[16]; [19]
  Cocklebur plant response rating: 0
[16]; Preemergence
  Plant response rating, Cocklebur: 0
[16]; Preemergence, 250 g ai/ha
  Plant response rating (0 to 100), Cocklebur: 50
[16]; [28]
  Cocklebur plant response rating: 40
[17]; [21]
  Plant response rating, Barnyardgrass: 0
[17]; [22]
  Plant response rating, Barnyardgrass: 0
[17]; [23]
  Plant response rating, Barnyardgrass: 30
[17]; [24]
  Plant response rating, Barnyardgrass: 75
